Experimental data published in ChEMBL document CHEMBL1145498, “A systematic interaction map of validated kinase inhibitors with Ser/Thr kinases” (Proc Natl Acad Sci U S A, 2007).

target: Calcium/calmodulin-dependent protein kinase type 1G (Homo sapiens) (UniProt Q96NX5)
Sequence (Q96NX5 whole entry): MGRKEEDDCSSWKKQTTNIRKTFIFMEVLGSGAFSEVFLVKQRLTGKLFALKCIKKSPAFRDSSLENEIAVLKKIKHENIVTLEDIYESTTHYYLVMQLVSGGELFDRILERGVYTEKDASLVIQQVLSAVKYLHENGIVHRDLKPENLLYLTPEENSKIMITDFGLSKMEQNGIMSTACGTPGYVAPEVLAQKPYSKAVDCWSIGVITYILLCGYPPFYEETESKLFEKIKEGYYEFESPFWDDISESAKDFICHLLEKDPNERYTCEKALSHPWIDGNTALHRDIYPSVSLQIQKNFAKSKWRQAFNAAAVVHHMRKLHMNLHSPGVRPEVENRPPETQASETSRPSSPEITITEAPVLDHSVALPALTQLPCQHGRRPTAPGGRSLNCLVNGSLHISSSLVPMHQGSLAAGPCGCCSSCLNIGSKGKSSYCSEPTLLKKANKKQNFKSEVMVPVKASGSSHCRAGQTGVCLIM

| ΔTm | SMILES |
| --- | --- |
| 1 °C | O=C1NC(=O)C(c2cn(CCCn3ccnc3)c3ccccc23)=C1Nc1ccccc1 |
| 0.2 °C | O=C(O)c1cc(N(Cc2ccccc2O)Cc2cc(O)ccc2O)ccc1O [LAVENDUSTIN A] |

| SMILES | ΔTm |
| --- | --- |
| Nc1cccc(-c2cc3c(Oc4cccc(O)c4)ncnc3[nH]2)c1 | 1 °C |

target: Calcium/calmodulin-dependent protein kinase type II subunit alpha (Homo sapiens) (UniProt Q9UQM7)

| ΔTm | SMILES |
| --- | --- |
| 1.7 °C | O=C1NC(=O)C(c2cn(CCCn3ccnc3)c3ccccc23)=C1Nc1ccccc1 |
| 1.3 °C | O=C(O)c1cc(N(Cc2ccccc2O)Cc2cc(O)ccc2O)ccc1O [LAVENDUSTIN A] |

| SMILES | ΔTm |
| --- | --- |
| Nc1cccc(-c2cc3c(Oc4cccc(O)c4)ncnc3[nH]2)c1 | 0.5 °C |

target: Calcium/calmodulin-dependent protein kinase type II subunit beta (Homo sapiens) (UniProt Q13554)
Sequence (Q13554 whole entry): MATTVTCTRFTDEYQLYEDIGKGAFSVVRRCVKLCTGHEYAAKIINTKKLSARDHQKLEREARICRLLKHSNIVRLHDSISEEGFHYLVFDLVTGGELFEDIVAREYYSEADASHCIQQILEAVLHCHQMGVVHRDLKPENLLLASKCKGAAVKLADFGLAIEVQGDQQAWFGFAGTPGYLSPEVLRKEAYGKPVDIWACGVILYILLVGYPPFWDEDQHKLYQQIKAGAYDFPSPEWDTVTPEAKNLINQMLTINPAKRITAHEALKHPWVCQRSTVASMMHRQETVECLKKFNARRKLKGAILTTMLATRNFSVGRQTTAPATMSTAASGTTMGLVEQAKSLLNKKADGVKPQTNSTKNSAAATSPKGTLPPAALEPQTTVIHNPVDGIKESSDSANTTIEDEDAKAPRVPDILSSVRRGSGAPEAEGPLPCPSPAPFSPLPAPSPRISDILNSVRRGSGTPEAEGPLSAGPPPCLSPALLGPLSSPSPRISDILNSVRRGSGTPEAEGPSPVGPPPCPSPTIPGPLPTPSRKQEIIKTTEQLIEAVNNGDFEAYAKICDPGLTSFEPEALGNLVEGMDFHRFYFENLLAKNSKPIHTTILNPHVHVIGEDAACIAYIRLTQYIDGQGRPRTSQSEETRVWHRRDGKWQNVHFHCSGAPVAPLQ

| ΔTm | SMILES |
| --- | --- |
| 0.7 °C | O=C1NC(=O)C(c2cn(CCCn3ccnc3)c3ccccc23)=C1Nc1ccccc1 |
| -0.1 °C | O=C(O)c1cc(N(Cc2ccccc2O)Cc2cc(O)ccc2O)ccc1O [LAVENDUSTIN A] |

| SMILES | ΔTm |
| --- | --- |
| Nc1cccc(-c2cc3c(Oc4cccc(O)c4)ncnc3[nH]2)c1 | 0.5 °C |

target: Calcium/calmodulin-dependent protein kinase type II subunit delta (Homo sapiens) (UniProt Q13557)
Sequence (Q13557 whole entry): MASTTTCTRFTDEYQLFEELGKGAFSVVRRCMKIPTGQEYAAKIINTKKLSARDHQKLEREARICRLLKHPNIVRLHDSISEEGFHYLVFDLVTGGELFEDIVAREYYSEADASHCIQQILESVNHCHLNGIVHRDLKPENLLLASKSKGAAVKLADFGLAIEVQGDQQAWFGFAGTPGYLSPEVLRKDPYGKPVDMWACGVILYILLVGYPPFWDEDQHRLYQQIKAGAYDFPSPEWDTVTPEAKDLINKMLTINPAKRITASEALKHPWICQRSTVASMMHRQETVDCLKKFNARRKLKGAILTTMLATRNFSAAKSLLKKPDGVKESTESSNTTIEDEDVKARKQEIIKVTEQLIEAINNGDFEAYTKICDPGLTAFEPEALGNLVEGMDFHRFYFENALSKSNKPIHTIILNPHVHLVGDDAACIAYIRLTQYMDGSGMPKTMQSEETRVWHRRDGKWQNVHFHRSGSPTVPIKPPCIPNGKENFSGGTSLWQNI

| ΔTm | SMILES |
| --- | --- |
| 0.1 °C | O=C1NC(=O)C(c2cn(CCCn3ccnc3)c3ccccc23)=C1Nc1ccccc1 |
| 0.3 °C | O=C(O)c1cc(N(Cc2ccccc2O)Cc2cc(O)ccc2O)ccc1O [LAVENDUSTIN A] |

| SMILES | ΔTm |
| --- | --- |
| Nc1cccc(-c2cc3c(Oc4cccc(O)c4)ncnc3[nH]2)c1 | 0.1 °C |

target: Calcium/calmodulin-dependent protein kinase type II subunit gamma (Homo sapiens) (UniProt Q13555)
Sequence (Q13555 whole entry): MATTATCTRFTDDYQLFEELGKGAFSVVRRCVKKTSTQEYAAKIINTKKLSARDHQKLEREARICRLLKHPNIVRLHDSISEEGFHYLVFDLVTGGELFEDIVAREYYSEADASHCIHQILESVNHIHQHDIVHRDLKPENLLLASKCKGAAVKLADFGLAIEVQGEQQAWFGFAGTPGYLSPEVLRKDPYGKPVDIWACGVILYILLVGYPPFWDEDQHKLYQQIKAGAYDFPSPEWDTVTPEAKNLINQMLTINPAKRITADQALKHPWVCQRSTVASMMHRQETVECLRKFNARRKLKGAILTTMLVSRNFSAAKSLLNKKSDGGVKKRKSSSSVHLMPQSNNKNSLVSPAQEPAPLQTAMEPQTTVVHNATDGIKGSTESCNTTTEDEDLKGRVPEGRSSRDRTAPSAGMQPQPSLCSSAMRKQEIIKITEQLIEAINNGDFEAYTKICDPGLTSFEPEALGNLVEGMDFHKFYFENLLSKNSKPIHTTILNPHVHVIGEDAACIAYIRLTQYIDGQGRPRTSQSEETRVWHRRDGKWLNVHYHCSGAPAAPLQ

| ΔTm | SMILES |
| --- | --- |
| 0.9 °C | O=C1NC(=O)C(c2cn(CCCn3ccnc3)c3ccccc23)=C1Nc1ccccc1 |
| -0.1 °C | O=C(O)c1cc(N(Cc2ccccc2O)Cc2cc(O)ccc2O)ccc1O [LAVENDUSTIN A] |

| SMILES | ΔTm |
| --- | --- |
| Nc1cccc(-c2cc3c(Oc4cccc(O)c4)ncnc3[nH]2)c1 | 0.1 °C |

target: Dual specificity protein kinase CLK2 (Homo sapiens) (UniProt P49760)
Sequence (P49760 whole entry, looked up): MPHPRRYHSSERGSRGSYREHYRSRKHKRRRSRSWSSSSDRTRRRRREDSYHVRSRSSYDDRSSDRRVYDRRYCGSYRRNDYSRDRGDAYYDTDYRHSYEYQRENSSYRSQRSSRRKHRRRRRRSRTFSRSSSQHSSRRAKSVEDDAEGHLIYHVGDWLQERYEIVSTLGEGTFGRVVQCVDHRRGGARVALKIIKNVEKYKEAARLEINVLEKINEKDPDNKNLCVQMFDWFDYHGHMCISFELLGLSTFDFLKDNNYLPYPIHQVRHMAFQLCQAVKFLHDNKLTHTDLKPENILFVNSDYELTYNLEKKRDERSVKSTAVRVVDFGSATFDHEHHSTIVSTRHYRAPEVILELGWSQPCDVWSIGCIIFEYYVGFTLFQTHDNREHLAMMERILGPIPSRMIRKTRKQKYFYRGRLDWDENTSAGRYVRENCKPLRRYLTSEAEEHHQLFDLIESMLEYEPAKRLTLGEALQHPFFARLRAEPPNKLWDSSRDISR

| ΔTm | SMILES |
| --- | --- |
| 4.3 °C | O=C1NC(=O)C(c2cn(CCCn3ccnc3)c3ccccc23)=C1Nc1ccccc1 |
| 0.5 °C | O=C(O)c1cc(N(Cc2ccccc2O)Cc2cc(O)ccc2O)ccc1O [LAVENDUSTIN A] |

| SMILES | ΔTm |
| --- | --- |
| Nc1cccc(-c2cc3c(Oc4cccc(O)c4)ncnc3[nH]2)c1 | 0.4 °C |

target: Dual specificity protein kinase CLK3 (Homo sapiens) (UniProt P49761)

| ΔTm | SMILES |
| --- | --- |
| 3 °C | O=C1NC(=O)C(c2cn(CCCn3ccnc3)c3ccccc23)=C1Nc1ccccc1 |
| 0.3 °C | O=C(O)c1cc(N(Cc2ccccc2O)Cc2cc(O)ccc2O)ccc1O [LAVENDUSTIN A] |

| SMILES | ΔTm |
| --- | --- |
| Nc1cccc(-c2cc3c(Oc4cccc(O)c4)ncnc3[nH]2)c1 | 0.9 °C |

target: Casein kinase I isoform gamma-1 (Homo sapiens) (UniProt Q9HCP0)
Sequence (Q9HCP0 whole entry, looked up, canonical isoform): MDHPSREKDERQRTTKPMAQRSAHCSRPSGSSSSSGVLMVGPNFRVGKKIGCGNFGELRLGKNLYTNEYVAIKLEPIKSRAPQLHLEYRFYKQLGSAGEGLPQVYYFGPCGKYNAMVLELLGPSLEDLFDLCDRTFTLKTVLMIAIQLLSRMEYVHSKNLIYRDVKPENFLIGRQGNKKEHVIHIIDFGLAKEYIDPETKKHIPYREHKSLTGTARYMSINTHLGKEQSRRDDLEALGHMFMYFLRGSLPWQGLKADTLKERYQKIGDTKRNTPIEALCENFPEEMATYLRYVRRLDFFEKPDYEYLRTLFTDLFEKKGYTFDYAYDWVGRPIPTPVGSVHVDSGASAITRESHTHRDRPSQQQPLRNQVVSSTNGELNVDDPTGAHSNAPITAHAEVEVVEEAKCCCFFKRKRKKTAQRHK

| ΔTm | SMILES |
| --- | --- |
| 0.6 °C | O=C1NC(=O)C(c2cn(CCCn3ccnc3)c3ccccc23)=C1Nc1ccccc1 |
| 1.4 °C | O=C(O)c1cc(N(Cc2ccccc2O)Cc2cc(O)ccc2O)ccc1O [LAVENDUSTIN A] |

| SMILES | ΔTm |
| --- | --- |
| Nc1cccc(-c2cc3c(Oc4cccc(O)c4)ncnc3[nH]2)c1 | 1.5 °C |

target: Death-associated protein kinase 3 (Homo sapiens) (UniProt O43293)

| SMILES | ΔTm |
| --- | --- |
| O=C1NC(=O)C(c2cn(CCCn3ccnc3)c3ccccc23)=C1Nc1ccccc1 | 1.3 °C |
| Nc1cccc(-c2cc3c(Oc4cccc(O)c4)ncnc3[nH]2)c1 | 0.4 °C |
| O=C(O)c1cc(N(Cc2ccccc2O)Cc2cc(O)ccc2O)ccc1O [LAVENDUSTIN A] | 0.8 °C |

target: T1, Myotonin-protein kinase (Homo sapiens) (UniProt Q09013)
T1 sequence (whole entry): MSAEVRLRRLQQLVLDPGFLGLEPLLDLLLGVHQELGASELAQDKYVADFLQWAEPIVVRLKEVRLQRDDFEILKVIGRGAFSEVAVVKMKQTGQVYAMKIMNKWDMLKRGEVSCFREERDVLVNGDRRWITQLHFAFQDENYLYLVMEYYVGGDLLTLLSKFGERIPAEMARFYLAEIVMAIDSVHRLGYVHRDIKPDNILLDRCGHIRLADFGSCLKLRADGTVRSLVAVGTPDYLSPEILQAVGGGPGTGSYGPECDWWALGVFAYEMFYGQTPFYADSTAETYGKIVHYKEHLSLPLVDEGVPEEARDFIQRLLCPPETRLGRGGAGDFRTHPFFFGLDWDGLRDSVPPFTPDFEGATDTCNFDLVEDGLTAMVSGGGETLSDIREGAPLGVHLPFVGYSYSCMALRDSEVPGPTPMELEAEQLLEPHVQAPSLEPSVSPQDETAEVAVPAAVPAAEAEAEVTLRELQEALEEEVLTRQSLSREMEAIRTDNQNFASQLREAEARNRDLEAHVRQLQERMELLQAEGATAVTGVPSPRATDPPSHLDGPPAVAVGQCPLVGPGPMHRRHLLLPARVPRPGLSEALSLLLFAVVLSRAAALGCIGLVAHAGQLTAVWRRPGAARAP

| ΔTm | SMILES |
| --- | --- |
| 4.5 °C | O=C1NC(=O)C(c2cn(CCCn3ccnc3)c3ccccc23)=C1Nc1ccccc1 |
| 0.9 °C | O=C(O)c1cc(N(Cc2ccccc2O)Cc2cc(O)ccc2O)ccc1O [LAVENDUSTIN A] |

| SMILES | ΔTm |
| --- | --- |
| Nc1cccc(-c2cc3c(Oc4cccc(O)c4)ncnc3[nH]2)c1 | 2.5 °C |

target: Dual specificity mitogen-activated protein kinase kinase 2 (Homo sapiens, UniProt P36507)
Sequence (P36507 whole entry): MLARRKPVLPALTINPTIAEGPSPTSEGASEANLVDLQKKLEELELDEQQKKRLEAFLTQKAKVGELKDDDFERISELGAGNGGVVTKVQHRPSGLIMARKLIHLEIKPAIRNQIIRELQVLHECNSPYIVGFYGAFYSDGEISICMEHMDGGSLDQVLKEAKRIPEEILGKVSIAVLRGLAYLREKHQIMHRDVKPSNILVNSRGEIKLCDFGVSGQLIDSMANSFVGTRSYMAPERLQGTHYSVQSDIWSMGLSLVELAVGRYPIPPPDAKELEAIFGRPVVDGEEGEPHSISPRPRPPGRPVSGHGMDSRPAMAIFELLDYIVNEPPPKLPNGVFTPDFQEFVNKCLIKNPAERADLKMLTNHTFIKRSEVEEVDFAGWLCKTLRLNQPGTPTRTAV

| ΔTm | SMILES |
| --- | --- |
| 0.4 °C | O=C1NC(=O)C(c2cn(CCCn3ccnc3)c3ccccc23)=C1Nc1ccccc1 |
| 0.5 °C | O=C(O)c1cc(N(Cc2ccccc2O)Cc2cc(O)ccc2O)ccc1O [LAVENDUSTIN A] |

| SMILES | ΔTm |
| --- | --- |
| Nc1cccc(-c2cc3c(Oc4cccc(O)c4)ncnc3[nH]2)c1 | 2.7 °C |

target: T2, Dual specificity mitogen-activated protein kinase kinase 6 (Homo sapiens) (UniProt P52564)
T2 sequence (whole entry): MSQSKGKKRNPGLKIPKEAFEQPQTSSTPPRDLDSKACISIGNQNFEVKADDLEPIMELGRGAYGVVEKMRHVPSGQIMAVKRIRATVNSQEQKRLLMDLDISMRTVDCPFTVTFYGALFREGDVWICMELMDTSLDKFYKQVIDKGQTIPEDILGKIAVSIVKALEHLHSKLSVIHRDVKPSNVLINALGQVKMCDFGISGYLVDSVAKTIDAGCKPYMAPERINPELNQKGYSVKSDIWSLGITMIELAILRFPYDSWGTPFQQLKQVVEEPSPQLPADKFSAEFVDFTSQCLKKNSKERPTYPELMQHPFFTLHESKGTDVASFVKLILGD

| ΔTm | SMILES |
| --- | --- |
| 0.9 °C | O=C1NC(=O)C(c2cn(CCCn3ccnc3)c3ccccc23)=C1Nc1ccccc1 |
| -1.1 °C | O=C(O)c1cc(N(Cc2ccccc2O)Cc2cc(O)ccc2O)ccc1O [LAVENDUSTIN A] |

| SMILES | ΔTm |
| --- | --- |
| Nc1cccc(-c2cc3c(Oc4cccc(O)c4)ncnc3[nH]2)c1 | 2.7 °C |

target: Mitogen-activated protein kinase 3 (Homo sapiens, UniProt P27361)

| ΔTm | SMILES |
| --- | --- |
| -0.1 °C | O=C1NC(=O)C(c2cn(CCCn3ccnc3)c3ccccc23)=C1Nc1ccccc1 |
| 0.3 °C | O=C(O)c1cc(N(Cc2ccccc2O)Cc2cc(O)ccc2O)ccc1O [LAVENDUSTIN A] |

| SMILES | ΔTm |
| --- | --- |
| Nc1cccc(-c2cc3c(Oc4cccc(O)c4)ncnc3[nH]2)c1 | 0 °C |

target: Mitogen-activated protein kinase 6 (Homo sapiens) (UniProt Q16659)

| ΔTm | SMILES |
| --- | --- |
| 0.6 °C | O=C1NC(=O)C(c2cn(CCCn3ccnc3)c3ccccc23)=C1Nc1ccccc1 |
| 0.8 °C | O=C(O)c1cc(N(Cc2ccccc2O)Cc2cc(O)ccc2O)ccc1O [LAVENDUSTIN A] |

| SMILES | ΔTm |
| --- | --- |
| Nc1cccc(-c2cc3c(Oc4cccc(O)c4)ncnc3[nH]2)c1 | 1.2 °C |

target: Serine/threonine-protein kinase OSR1 (Homo sapiens) (UniProt O95747)
Sequence (O95747 2-527 limits assumed): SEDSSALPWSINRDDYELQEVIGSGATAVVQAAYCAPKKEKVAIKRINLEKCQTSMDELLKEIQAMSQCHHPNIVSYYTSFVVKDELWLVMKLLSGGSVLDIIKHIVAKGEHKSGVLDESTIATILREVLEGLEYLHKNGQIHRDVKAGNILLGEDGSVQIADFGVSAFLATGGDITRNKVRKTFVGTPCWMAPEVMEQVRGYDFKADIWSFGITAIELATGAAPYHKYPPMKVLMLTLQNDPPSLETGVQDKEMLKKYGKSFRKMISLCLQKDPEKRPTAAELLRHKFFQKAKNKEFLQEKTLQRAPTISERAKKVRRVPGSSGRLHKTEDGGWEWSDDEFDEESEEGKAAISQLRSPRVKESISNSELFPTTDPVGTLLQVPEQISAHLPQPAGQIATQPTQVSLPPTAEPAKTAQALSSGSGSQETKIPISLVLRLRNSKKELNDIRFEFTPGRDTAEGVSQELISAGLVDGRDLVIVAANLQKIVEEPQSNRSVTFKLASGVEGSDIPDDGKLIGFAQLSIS

| ΔTm | SMILES |
| --- | --- |
| 0.2 °C | O=C1NC(=O)C(c2cn(CCCn3ccnc3)c3ccccc23)=C1Nc1ccccc1 |
| -0.1 °C | O=C(O)c1cc(N(Cc2ccccc2O)Cc2cc(O)ccc2O)ccc1O [LAVENDUSTIN A] |

| SMILES | ΔTm |
| --- | --- |
| Nc1cccc(-c2cc3c(Oc4cccc(O)c4)ncnc3[nH]2)c1 | 1.7 °C |

target: Serine/threonine-protein kinase PLK1 (Homo sapiens) (UniProt P53350)
Sequence (P53350 whole entry): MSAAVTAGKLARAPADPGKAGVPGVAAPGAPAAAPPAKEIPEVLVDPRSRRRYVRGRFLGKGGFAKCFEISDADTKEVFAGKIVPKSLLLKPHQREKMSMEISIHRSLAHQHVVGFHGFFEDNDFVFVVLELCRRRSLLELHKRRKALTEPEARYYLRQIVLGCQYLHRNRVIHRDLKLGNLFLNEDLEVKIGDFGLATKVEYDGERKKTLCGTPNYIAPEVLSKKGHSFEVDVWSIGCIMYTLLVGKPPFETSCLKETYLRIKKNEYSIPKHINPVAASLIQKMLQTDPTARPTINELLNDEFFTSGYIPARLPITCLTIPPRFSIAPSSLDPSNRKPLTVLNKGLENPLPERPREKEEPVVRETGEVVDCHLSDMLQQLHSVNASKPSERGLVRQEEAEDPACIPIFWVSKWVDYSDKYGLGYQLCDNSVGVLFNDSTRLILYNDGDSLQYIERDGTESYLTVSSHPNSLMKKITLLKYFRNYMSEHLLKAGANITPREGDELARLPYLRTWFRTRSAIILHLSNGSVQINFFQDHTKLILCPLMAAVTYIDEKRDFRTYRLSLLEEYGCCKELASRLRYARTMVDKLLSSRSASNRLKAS

| ΔTm | SMILES |
| --- | --- |
| 1.2 °C | O=C1NC(=O)C(c2cn(CCCn3ccnc3)c3ccccc23)=C1Nc1ccccc1 |
| 0.9 °C | O=C(O)c1cc(N(Cc2ccccc2O)Cc2cc(O)ccc2O)ccc1O [LAVENDUSTIN A] |

| SMILES | ΔTm |
| --- | --- |
| Nc1cccc(-c2cc3c(Oc4cccc(O)c4)ncnc3[nH]2)c1 | 4.4 °C |

target: TRAF2 and NCK-interacting protein kinase (Homo sapiens) (UniProt Q9UKE5)

| ΔTm | SMILES |
| --- | --- |
| -0.7 °C | O=C1NC(=O)C(c2cn(CCCn3ccnc3)c3ccccc23)=C1Nc1ccccc1 |
| 0 °C | O=C(O)c1cc(N(Cc2ccccc2O)Cc2cc(O)ccc2O)ccc1O [LAVENDUSTIN A] |

| SMILES | ΔTm |
| --- | --- |
| Nc1cccc(-c2cc3c(Oc4cccc(O)c4)ncnc3[nH]2)c1 | -0.4 °C |

target: T3, Serine/threonine-protein kinase VRK1 (Homo sapiens) (UniProt Q99986)
T3 sequence (whole entry): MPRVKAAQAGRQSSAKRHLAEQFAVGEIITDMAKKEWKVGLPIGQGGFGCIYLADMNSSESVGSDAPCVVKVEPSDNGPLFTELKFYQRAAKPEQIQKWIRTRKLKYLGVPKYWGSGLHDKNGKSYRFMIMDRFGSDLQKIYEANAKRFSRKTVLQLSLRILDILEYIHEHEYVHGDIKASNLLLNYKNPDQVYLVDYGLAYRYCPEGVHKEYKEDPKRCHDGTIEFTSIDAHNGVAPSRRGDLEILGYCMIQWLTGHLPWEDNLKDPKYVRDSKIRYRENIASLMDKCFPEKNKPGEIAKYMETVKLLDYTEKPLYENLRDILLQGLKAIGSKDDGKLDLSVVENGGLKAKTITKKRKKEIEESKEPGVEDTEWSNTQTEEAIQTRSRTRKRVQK

| ΔTm | SMILES |
| --- | --- |
| 0.6 °C | O=C1NC(=O)C(c2cn(CCCn3ccnc3)c3ccccc23)=C1Nc1ccccc1 |
| 0.3 °C | O=C(O)c1cc(N(Cc2ccccc2O)Cc2cc(O)ccc2O)ccc1O [LAVENDUSTIN A] |

| SMILES | ΔTm |
| --- | --- |
| Nc1cccc(-c2cc3c(Oc4cccc(O)c4)ncnc3[nH]2)c1 | 0.8 °C |
